Counter-ions that a name gives are not always drawn.
Legend:
[1] = molecular target: T1, human gene recombinant 5-HT7 receptor expressed in CHO cells (Homo sapiens, UniProt P34969); experiment: Binding affinity for the 5-HT7 serotonin receptor ([3H]LSD radioligand)
T1 construct: expressed in transfected cells; host or cells: CHO cells (membrane preparation)
Method: In this example, the human gene recombinant 5-HT7 receptor expressed in CHO cells was used. 1 nM [^3H]LSD, 5-HT7 receptor membrane (15 μg/well), a test drug, 10 mM MgCl2, 50 mM Tris-HCl buffer (pH 7.4) containing 0.1 mM EDTA, etc. were added to a vessel until the final volume reached 0.25 ml. The test drug was used at various concentrations. The mixture was cultured at 25° C. for 90 min. The culture was rapidly filtered through a Whatman GF/C glass fiber filter, which had been previously wetted with 0.3% polyethyleneimine using a Brandel harvester, to quench the reaction. The reaction mixture was washed with cold 50 mM Tris-HCl buffer. The filter was covered with MeltiLex, sealed in a sample bag, and dried in an oven. Counting was performed using MicroBeta (Wallac) and nonspecific binding was measured in the presence of […]. The K value of the test drug was obtained from nonlinear regression analysis (GraphPad Prism Program, San Diego, USA) of isotherms obtained by repeatedly performing the experiment on the drug at 10-11 stage concentrations in two test tubes (each twice).
The % inhibition values of the inventive compounds having different Y structures at a concentration of 10 μM against the 5-HT7 serotonin receptor were measured. Further, the binding affinity (Ki) values of the inventive compounds having different Y structures at a concentration of 10 μM for the 5-HT7 serotonin receptor were measured.

[2] = molecular target: T2, 5-HT2C (Homo sapiens, UniProt P28335); experiment: 5-HT2C receptor inhibition/binding (Tables 1-3)
T2 sequence (P28335 33-458): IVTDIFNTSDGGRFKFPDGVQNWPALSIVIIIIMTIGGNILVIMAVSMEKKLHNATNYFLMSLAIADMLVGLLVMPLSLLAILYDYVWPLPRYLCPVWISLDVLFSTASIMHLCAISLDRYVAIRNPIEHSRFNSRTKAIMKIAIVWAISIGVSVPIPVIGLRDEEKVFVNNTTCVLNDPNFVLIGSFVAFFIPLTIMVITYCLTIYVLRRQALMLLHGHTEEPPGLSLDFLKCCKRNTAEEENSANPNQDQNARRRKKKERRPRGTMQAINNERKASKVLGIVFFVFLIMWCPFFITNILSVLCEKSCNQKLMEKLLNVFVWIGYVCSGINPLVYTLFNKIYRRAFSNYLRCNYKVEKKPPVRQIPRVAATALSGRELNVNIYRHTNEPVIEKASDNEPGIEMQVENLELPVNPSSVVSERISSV

[3] = molecular target: 5-HT6 (Homo sapiens, UniProt P50406); experiment: 5-HT6 receptor inhibition/binding (Tables 2-3)
[4] = molecular target: T3, 5-HT1A (Homo sapiens, UniProt P08908); experiment: 5-HT1A receptor inhibition (Table 3); type: binding
T3 sequence (P08908 1-422): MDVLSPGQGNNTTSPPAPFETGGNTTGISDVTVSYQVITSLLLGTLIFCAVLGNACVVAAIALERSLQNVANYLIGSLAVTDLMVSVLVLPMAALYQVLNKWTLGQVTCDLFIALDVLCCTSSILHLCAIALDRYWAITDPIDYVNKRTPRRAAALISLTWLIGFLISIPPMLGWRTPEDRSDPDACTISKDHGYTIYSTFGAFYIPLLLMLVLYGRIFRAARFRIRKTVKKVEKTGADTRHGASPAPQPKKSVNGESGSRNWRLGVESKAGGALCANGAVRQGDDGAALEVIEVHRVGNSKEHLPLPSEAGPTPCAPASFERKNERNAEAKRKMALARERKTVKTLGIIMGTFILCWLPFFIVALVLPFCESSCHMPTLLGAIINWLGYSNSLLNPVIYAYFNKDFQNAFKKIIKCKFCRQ

5-HT6, sequence (P50406 whole entry, species assumed): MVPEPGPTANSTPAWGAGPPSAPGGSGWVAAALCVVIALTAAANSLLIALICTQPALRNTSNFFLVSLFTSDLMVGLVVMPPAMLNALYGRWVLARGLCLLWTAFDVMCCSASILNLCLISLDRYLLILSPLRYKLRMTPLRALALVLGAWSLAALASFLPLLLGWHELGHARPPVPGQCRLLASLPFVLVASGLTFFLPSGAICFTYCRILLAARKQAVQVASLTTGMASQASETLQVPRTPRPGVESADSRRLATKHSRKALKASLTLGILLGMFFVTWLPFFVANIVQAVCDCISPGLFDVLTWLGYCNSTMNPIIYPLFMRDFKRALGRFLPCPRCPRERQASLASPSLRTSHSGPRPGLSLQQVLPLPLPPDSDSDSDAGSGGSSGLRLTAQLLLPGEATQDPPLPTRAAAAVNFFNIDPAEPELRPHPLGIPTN
T1 sequence (P34969 whole entry): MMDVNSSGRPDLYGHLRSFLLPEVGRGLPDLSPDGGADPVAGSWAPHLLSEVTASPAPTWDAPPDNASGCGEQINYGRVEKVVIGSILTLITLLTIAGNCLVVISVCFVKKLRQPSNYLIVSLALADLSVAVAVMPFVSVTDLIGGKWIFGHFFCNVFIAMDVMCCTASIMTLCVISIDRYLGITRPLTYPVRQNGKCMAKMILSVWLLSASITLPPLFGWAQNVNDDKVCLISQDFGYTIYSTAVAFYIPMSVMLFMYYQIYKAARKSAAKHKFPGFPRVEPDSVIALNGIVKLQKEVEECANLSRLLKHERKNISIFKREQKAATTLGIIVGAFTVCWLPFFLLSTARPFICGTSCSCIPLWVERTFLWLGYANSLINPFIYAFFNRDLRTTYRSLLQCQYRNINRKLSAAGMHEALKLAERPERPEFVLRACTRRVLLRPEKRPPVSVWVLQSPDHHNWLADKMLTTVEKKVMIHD

| Ki [1] [nM] | inhibition at 10 µM [1] [%] | inhibition at 10 µM [3] [%] | inhibition at 10 µM [4] [%] | Ki [3] [nM] | SMILES | inhibition at 10 µM [2] [%] | Ki [2] [nM] |
| --- | --- | --- | --- | --- | --- | --- | --- |
| 2340 | 72.1 | 24.5 | 51.8 |  | CC(=O)N1CCN(CCCCCC(=O)n2c3ccccc3c3ccccc32)CC1 [Example 2.11, 6-(4-Acetylpiperazin-1-yl)-1-(9H-carbazol-9-yl)hexan-1-one hydrochloride] | 51.3 |  |
| 1910 | 50 | 77.6 | 5.5 |  | CN1CCN(CCCCCC(=O)n2c3ccccc3c3ccccc32)CC1 [Example 2.12, 1-(9H-carbazol-9-yl)-6-(4-methylpiperazin-1-yl)hexan-1-one hydrochloride] | 82.5 |  |
|  | 40.4 | 78.4 | 15.9 |  | CN1CCN(CCCCC(=O)n2c3ccccc3c3ccccc32)CC1 [Example 2.28, 1-(9H-carbazol-9-yl)-5-(4-methylpiperazin-1-yl)pentan-1-one hydrochloride] |  |  |
| 404 | 90.8 | 14.7 | 69.4 |  | O=C(CCCN1CCN(Cc2ccccc2)CC1)n1c2ccccc2c2ccccc21 [Example 2.32, 4-(4-Benzylpiperazin-1-yl)-1-(9H-carbazol-9-yl)butan-1-one hydrochloride] |  |  |
| 50 | 97 | 16.1 | 101 |  | O=C(CCCN1CCN(c2ccccc2O)CC1)n1c2ccccc2c2ccccc21 [Example 2.33, 1-(9H-carbazol-9-yl)-4-(4-(2-hydroxyphenyl)piperazin-1-yl)butan-1-one] |  |  |
| 212 | 89.9 | 94.9 |  | 169 | c1ccc(C2CCN(CCCCCCn3c4ccccc4c4ccccc43)CC2)cc1 [Example 2.43, 9-(6-(4-Phenylpiperidin-1-yl)hexyl)-9H-carbazole] |  |  |
| 232 | 86.8 | 97.8 |  | 142 | c1ccc(CC2CCN(CCCCCCn3c4ccccc4c4ccccc43)CC2)cc1 [Example 2.44, 9-(6-(4-Benzylpiperidin-1-yl)hexyl)-9H-carbazole] |  |  |
| 1480 | 63.1 | 35 | 6.2 |  | CC(=O)N1CCN(CCCCCCn2c3ccccc3c3ccccc32)CC1 [Example 2.45, 1-(4-(6-(9H-carbazol-9-yl)hexyl)piperazin-1-yl)ethanone] |  |  |
|  | 49.4 | 82.2 | 19.3 |  | CN1CCN(CCCCCCn2c3ccccc3c3ccccc32)CC1 [Example 2.46, 9-(6-(4-Methylpiperazin-1-yl)hexyl)-9H-carbazole] |  |  |
| 602 | 86 | 77.5 | 62 |  | c1ccc(CN2CCN(CCCCCCn3c4ccccc4c4ccccc43)CC2)cc1 [Example 2.47, 9-(6-(4-Benzylpiperazin-1-yl)hexyl)-9H-carbazole] |  |  |
| 89 | 90.5 | 96.9 | 105 |  | Oc1ccccc1N1CCN(CCCCCCn2c3ccccc3c3ccccc32)CC1 [Example 2.48, 2-(4-(6-(9H-carbazol-9-yl)hexyl)piperazin-1-yl)phenol] |  |  |
| 145 | 85.7 | 85.1 | 105 |  | COc1ccccc1N1CCN(CCCCCCn2c3ccccc3c3ccccc32)CC1 [Example 2.49, 9-(6-(4-(2-Methoxyphenyl)piperazin-1-yl)hexyl)-9H-carbazole] |  |  |
| 178 | 94.1 | 96.1 |  | 123 | c1ccc(C2CCN(CCCCCn3c4ccccc4c4ccccc43)CC2)cc1 [Example 2.50, 9-(5-(4-Phenylpiperidin-1-yl)pentyl)-9H-carbazole] |  |  |
| 233 | 86.8 | 65.1 | 74.9 |  | c1ccc(CN2CCN(CCCCCn3c4ccccc4c4ccccc43)CC2)cc1 [Example 2.51, 9-(5-(4-Benzylpiperazin-1-yl)pentyl)-9H-carbazole] |  |  |
| 31 | 94.4 | 95.5 | 103 |  | Oc1ccccc1N1CCN(CCCCCn2c3ccccc3c3ccccc32)CC1 [Example 2.52, 2-(4-(5-(9H-carbazol-9-yl)pentyl)piperazin-1-yl)phenol] |  |  |
| 65 | 91.5 | 75.5 | 101 |  | COc1ccccc1N1CCN(CCCCCn2c3ccccc3c3ccccc32)CC1 [Example 2.53, 9-(5-(4-(2-Methoxyphenyl)piperazin-1-yl)pentyl)-9H-carbazole] |  |  |
| 205 | 94.4 | 55.5 |  | 1430 | c1ccc(C2CCN(CCCCn3c4ccccc4c4ccccc43)CC2)cc1 [Example 2.54, 9-(4-(4-Phenylpiperidin-1-yl)butyl)-9H-carbazole] |  |  |
| 64 | 92.5 | 56.3 | 104 |  | COc1ccccc1N1CCN(CCCCn2c3ccccc3c3ccccc32)CC1 [Example 2.56, 9-(4-(4-(2-Methoxyphenyl)piperazin-1-yl)butyl)-9H-carbazole] |  |  |
| 353 | 91.1 | 32.9 |  |  | c1ccc(C2CCN(CCCn3c4ccccc4c4ccccc43)CC2)cc1 [Example 2.57, 9-(3-(4-Phenylpiperidin-1-yl)propyl)-9H-carbazole] |  |  |
| 404 | 88.7 | 15.1 | 64.9 |  | c1ccc(CN2CCN(CCCn3c4ccccc4c4ccccc43)CC2)cc1 [Example 2.58, 9-(3-(4-Benzylpiperazin-1-yl)propyl)-9H-carbazole] |  |  |
| 96 | 94.7 | 21.7 | 105 |  | Oc1ccccc1N1CCN(CCCn2c3ccccc3c3ccccc32)CC1 [Example 2.59, 2-(4-(3-(9H-carbazol-9-yl)propyl)piperazin-1-yl)phenol] |  |  |
| 155 | 90.7 | 12.2 | 103 |  | COc1ccccc1N1CCN(CCCn2c3ccccc3c3ccccc32)CC1 [Example 2.60, 9-(3-(4-(2-Methoxyphenyl)piperazin-1-yl)propyl)-9H-carbazole] |  |  |

| SMILES | Ki [1] [nM] | inhibition at 10 µM [1] [%] | inhibition at 10 µM [3] [%] | inhibition at 10 µM [4] [%] | Ki [3] [nM] | inhibition at 10 µM [2] [%] | Ki [2] [nM] |
| --- | --- | --- | --- | --- | --- | --- | --- |
| O=C(CCCCN1CCC(c2ccccc2)CC1)n1c2ccccc2c2ccccc21 [Example 2.25, 1-(9H-carbazol-9-yl)-5-(4-phenylpiperidin-1-yl)pentan-1-one hydrochloride] | 153 | 96 | 67 |  | 1500 | 53.2 | 905 |
| O=C(CCCCN1CCC(Cc2ccccc2)CC1)n1c2ccccc2c2ccccc21 [Example 2.26, 5-(4-Benzylpiperidin-1-yl)-1-(9H-carbazol-9-yl)pentan-1-one hydrochloride] | 312 | 97.4 | 93.4 |  | 302 | 43.1 |  |
| O=C(CCCCN1CCN(c2ccccc2O)CC1)n1c2ccccc2c2ccccc21 [Example 2.30, 1-(9H-carbazol-9-yl)-5-(4-(2-hydroxyphenyl)piperazin-1-yl)pentan-1-one hydrochloride] | 86 | 98.7 | 62.6 | 102 |  |  |  |
